Measurements from patent US8399459B2, “1,4 oxazines as BACE1 and/or BACE2 inhibitors” (Hoffmann-La Roche Inc., priority 2011, dated 2013).
Structures can show the parent of a compound that is named as a salt.

Target: T1, BACE1 (Homo sapiens, UniProt P56817)
T1 construct: Human HEK293 cells which are stably transfected with a vector expressing a cDNA of the human APP wt gene (APP695); endogenous in cells; host or cells: HEK293 (human), stably transfected with human APP695 wt only
Assay: Cellular Aβ-lowering assay (Aβ40 ELISA, HEK293 cells expressing human APP695)
Format: cell-based
Conditions: HEK293 cells stably expressing human APP695; Aβ40 in supernatant after 18-20 hrs
Description: Cellular Aβ-Lowering Assay:
Human HEK293 cells which are stably transfected with a vector expressing a cDNA of the human APP wt gene (APP695) were used to assess the potency of the compounds in a cellular assay. The cells were seeded in 96-well microtiter plates in cell culture medium (Iscove, plus 10% (v/v) fetal bovine serum, glutamine, penicillin/streptomycin) to about 80% confluence and the compounds were added at a 10× concentration in 1/10 volume of medium without FCS containing 8% DMSO (final concentration of DMSO was kept at 0.8% v/v). After 18-20 hrs incubation at 37° C. and 5% CO2 in a humidified incubator the culture supernatant was harvested for the determination of Aβ40 concentrations. 96well ELISA plates (e.g., Nunc MaxiSorb) were coated with monoclonal antibody which specifically recognize the C-terminal end of Aβ40 (Brockhaus et al., NeuroReport 9, 1481-1486; 1998). After blocking of non-specific binding sites with e.g. 1% BSA and washing, the culture supernatants were added in suitable dilutions together with a horseradish peroxidase-coupled Aβ detection antibody (e.g., antibody 4G8, Senetek, Maryland Heights, Mo.) and incubated for 5 to 7 hrs. Subsequently the wells of the microtiter plate were washed extensively with Tris-buffered saline containing 0.05% Tween 20 and the assay was developed with tetramethylbenzidine/H2O2 in citric acid buffer. After stopping the reaction with one volume 1 N H2SO4 the reaction was measured in an ELISA reader at 450 nm wavelength. The concentrations of Aβ in the culture supernatants were calculated from a standard curve obtained with known amounts of pure Aβ peptide.

T1 sequence (P56817 46-501): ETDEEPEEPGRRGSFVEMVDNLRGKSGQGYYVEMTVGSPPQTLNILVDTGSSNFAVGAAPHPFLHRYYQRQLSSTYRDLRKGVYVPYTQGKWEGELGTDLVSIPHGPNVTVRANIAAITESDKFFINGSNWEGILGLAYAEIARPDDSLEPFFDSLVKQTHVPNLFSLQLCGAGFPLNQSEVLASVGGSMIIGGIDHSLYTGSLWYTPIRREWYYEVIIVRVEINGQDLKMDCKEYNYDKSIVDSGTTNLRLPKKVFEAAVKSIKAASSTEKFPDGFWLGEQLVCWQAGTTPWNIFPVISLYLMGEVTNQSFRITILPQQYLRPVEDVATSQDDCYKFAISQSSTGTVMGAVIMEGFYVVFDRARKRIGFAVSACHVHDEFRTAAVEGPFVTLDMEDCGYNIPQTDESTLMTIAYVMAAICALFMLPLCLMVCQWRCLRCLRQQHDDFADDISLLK

Compound | IC50 [µM]
COc1cncc(-c2cccc(C3(C)COCC(N)=N3)c2)c1 (centres unmarked) [Example 1, 5-[3-(5-Methoxy-pyridin-3-yl)-phenyl]-5-methyl-5,6-dihydro-2H-[1,4]oxazin-3-ylamine] | 0.1
CC1(c2cccc(-c3ccsc3)c2)COCC(N)=N1 (centres unmarked) [Example 3, 5-Methyl-5-(3-thiophen-3-yl-phenyl)-5,6-dihydro-2H-[1,4]oxazin-3-ylamine] | 1.06
CC1(c2cccc(-c3cccc(Cl)c3)c2)COCC(N)=N1 (centres unmarked) [Example 4, 5-(3′-Chloro-biphenyl-3-yl)-5-methyl-5,6-dihydro-2H-[1,4]oxazin-3-ylamine] | 0.39
CC1(c2cccc(-c3cc(Cl)ccc3Cl)c2)COCC(N)=N1 (centres unmarked) [Example 5, 5-(2′,5′-Dichloro-biphenyl-3-yl)-5-methyl-5,6-dihydro-2H-[1,4]oxazin-3-ylamine] | 1.09
CC1(c2cccc(-c3ccc(F)c(Cl)c3)c2)COCC(N)=N1 (centres unmarked) [Example 7, 5-(3′-Chloro-4′-fluoro-biphenyl-3-yl)-5-methyl-5,6-dihydro-2H-[1,4]oxazin-3-ylamine] | 0.65
COc1cc(Cl)cc(-c2cccc(C3(C)COCC(N)=N3)c2)c1 (centres unmarked) [Example 8, 5-(3′-Chloro-5′-methoxy-biphenyl-3-yl)-5-methyl-5,6-dihydro-2H-[1,4]oxazin-3-ylamine] | 1.49
CC1(c2cccc(-c3cc(Cl)cc(C(N)=O)c3)c2)COCC(N)=N1 (centres unmarked) [Example 12, 3′-(5-Amino-3-methyl-3,6-dihydro-2H-[1,4]oxazin-3-yl)-5-chloro-biphenyl-3-carboxylic acid amide] | 1.12
CC1(c2cccc(-c3cccc(OC(F)F)c3)c2)COCC(N)=N1 (centres unmarked) [Example 14, 5-(3′-Difluoromethoxy-biphenyl-3-yl)-5-methyl-5,6-dihydro-2H-[1,4]oxazin-3-ylamine] | 0.48
CC1(c2cccc(-c3cccc(C#N)c3)c2)COCC(N)=N1 (centres unmarked) [Example 16, 3′-(5-Amino-3-methyl-3,6-dihydro-2H-[1,4]oxazin-3-yl)-biphenyl-3-carbonitrile] | 0.28
CC1(c2cccc(-c3cccc(CC#N)c3)c2)COCC(N)=N1 (centres unmarked) [Example 17, [3′-(5-Amino-3-methyl-3,6-dihydro-2H-[1,4]oxazin-3-yl)-biphenyl-3-yl]-acetonitrile] | 1.06
CC(C)(C)c1ccc(-c2cccc(C3(C)COCC(N)=N3)c2)cc1 (centres unmarked) [Example 18, 5-(4′-tert-butyl-biphenyl-3-yl)-5-methyl-5,6-dihydro-2H-[1,4]oxazin-3-ylamine formate] | 6.12
CC1(c2cccc(-c3ccnc(Cl)c3)c2)COCC(N)=N1 (centres unmarked) [Example 19, 5-[3-(2-chloro-pyridin-4-yl)-phenyl]-5-methyl-5,6-dihydro-2H-[1,4]oxazin-3-ylamine formate] | 1.06
CC1(c2cccc(-c3ccc4c(c3)OC(F)(F)O4)c2)COCC(N)=N1 (centres unmarked) [Example 21, 5-[3-(2,2-Difluoro-benzo[1,3]dioxol-5-yl)-phenyl]-5-methyl-5,6-dihydro-2H-[1,4]oxazin-3-ylamine] | 4.55
Cn1ncc2c(-c3cccc(C4(C)COCC(N)=N4)c3)cccc21 (centres unmarked) [Example 23, 5-Methyl-5-[3-(1-methyl-1H-indazol-4-yl)-phenyl]-5,6-dihydro-2H-[1,4]oxazin-3-ylamine] | 3.66
CC1(c2cccc(-c3cc4ccc(Cl)cc4[nH]3)c2)COCC(N)=N1 (centres unmarked) [Example 24, 5-[3-(6-Chloro-1H-indol-2-yl)-phenyl]-5-methyl-5,6-dihydro-2H-[1,4]oxazin-3-ylamine] | 12.7
CC1(c2cccc(-c3ccc4[nH]ccc4c3)c2)COCC(N)=N1 (centres unmarked) [Example 25, 5-[3-(1H-Indol-5-yl)-phenyl]-5-methyl-5,6-dihydro-2H-[1,4]oxazin-3-ylamine] | 6.41
CC1(c2cccc(-c3cc(F)cc(F)c3)c2)COCC(N)=N1 (centres unmarked) [Example 28, 5-(3′,5′-Difluoro-biphenyl-3-yl)-5-methyl-5,6-dihydro-2H-[1,4]oxazin-3-ylamine] | 2.08
CC1(c2cccc(-c3ccccc3Cl)c2)COCC(N)=N1 (centres unmarked) [Example 29, 5-(2′-Chloro-biphenyl-3-yl)-5-methyl-5,6-dihydro-2H-[1,4]oxazin-3-ylamine] | 1.06
CCOc1cccc(-c2cccc(C3(C)COCC(N)=N3)c2)c1 (centres unmarked) [Example 30, 5-(3′-Ethoxy-biphenyl-3-yl)-5-methyl-5,6-dihydro-2H-[1,4]oxazin-3-ylamine] | 9.1
CC1(c2cccc(-c3cncc(C#N)c3)c2)COCC(N)=N1 (centres unmarked) [Example 38, 5-(3-(5-Amino-3-methyl-3,6-dihydro-2H-1,4-oxazin-3-yl)phenyl)nicotinonitrile] | 0.31
CC1(c2cccc(-c3cccnc3F)c2)COCC(N)=N1 (centres unmarked) [Example 39, 5-(3-(2-fluoropyridin-3-yl)phenyl)-5-methyl-5,6-dihydro-2H-1,4-oxazin-3-amine] | 0.28
CC1(c2cccc(-c3ccc(F)nc3F)c2)COCC(N)=N1 (centres unmarked) [Example 40, 5-(3-(2,6-difluoropyridin-3-yl)phenyl)-5-methyl-5,6-dihydro-2H-1,4-oxazin-3-amine] | 0.53
CC1(c2cccc(-c3cccc(N)c3)c2)COCC(N)=N1 (centres unmarked) [Example 41, 5-(3′-Amino-biphenyl-3-yl)-5-methyl-5,6-dihydro-2H-[1,4]oxazin-3-ylamine] | 3.07
COCC#Cc1cccc(C2(C)COCC(N)=N2)c1 (centres unmarked) [Example 42, 5-[3-(3-Methoxy-prop-1-ynyl)-phenyl]-5-methyl-5,6-dihydro-2H-[1,4]oxazin-3-ylamine] | 1.06
CC1(c2cccc(C#Cc3ccc(Cl)cn3)c2)COCC(N)=N1 (centres unmarked) [Example 43, 5-[3-(5-Chloro-pyridin-2-ylethynyl)-phenyl]-5-methyl-5,6-dihydro-2H-[1,4]oxazin-3-ylamine] | 0.3

More lines, in order of falling IC50, values ahead:

IC50 [µM] | Compound
13 | Cc1cc(-c2cccc(C3(C)COCC(N)=N3)c2)ccc1Cl (centres unmarked) [Example 26, 5-(4′-Chloro-3′-methyl-biphenyl-3-yl)-5-methyl-5,6-dihydro-2H-[1,4]oxazin-3-ylamine]
12.6 | CC1(c2cccc(-c3ccc(Cl)cn3)c2)COCC(N)=N1 (centres unmarked) [Example 33, 5-[3-(5-Chloro-pyridin-2-yl)-phenyl]-5-methyl-5,6-dihydro-2H-[1,4]oxazin-3-ylamine]
4.06 | CC1(c2cccc(-c3cc(Cl)cc(Cl)c3Cl)c2)COCC(N)=N1 (centres unmarked) [Example 6, 5-Methyl-5-(2′,3′,5′-trichloro-biphenyl-3-yl)-5,6-dihydro-2H-[1,4]oxazin-3-ylamine]
2.39 | CC1(c2cccc(-c3cc(Cl)cc(C(=O)N4CCOCC4)c3)c2)COCC(N)=N1 (centres unmarked) [Example 13, [3′-(5-Amino-3-methyl-3,6-dihydro-2H-[1,4]oxazin-3-yl)-5-chloro-biphenyl-3-yl]-morpholin-4-yl-methanone]
2.31 | CC1(c2cccc(-c3cccc(OC(F)(F)F)c3)c2)COCC(N)=N1 (centres unmarked) [Example 15, 5-Methyl-5-(3′-trifluoromethoxy-biphenyl-3-yl)-5,6-dihydro-2H-[1,4]oxazin-3-ylamine]
1.84 | CC1(c2cccc(-c3cc(Cl)cc(C(F)(F)F)c3)c2)COCC(N)=N1 (centres unmarked) [Example 11, 5-(5′-Chloro-3′-trifluoromethyl-biphenyl-3-yl)-5-methyl-5,6-dihydro-2H-[1,4]oxazin-3-ylamine]
1.5 | Cc1cc(Cl)cc(-c2cccc(C3(C)COCC(N)=N3)c2)c1F (centres unmarked) [Example 10, 5-(5′-Chloro-2′-fluoro-3′-methyl-biphenyl-3-yl)-5-methyl-5,6-dihydro-2H-[1,4]oxazin-3-ylamine]
1.17 | CC1(c2cccc(-c3ccc(F)cc3)c2)COCC(N)=N1 (centres unmarked) [Example 2, 5-(4′-Fluoro-biphenyl-3-yl)-5-methyl-5,6-dihydro-2H-[1,4]oxazin-3-ylamine]
1.06 | CC1(c2cccc(-c3ccc4c(c3)OCO4)c2)COCC(N)=N1 (centres unmarked) [Example 22, 5-(3-Benzo[1,3]dioxol-5-yl-phenyl)-5-methyl-5,6-dihydro-2H-[1,4]oxazin-3-ylamine]
1.06 | CC1(c2cccc(-c3ccc(F)cc3F)c2)COCC(N)=N1 (centres unmarked) [Example 27, 5-(2′,4′-Difluoro-biphenyl-3-yl)-5-methyl-5,6-dihydro-2H-[1,4]oxazin-3-ylamine]
1 | CC1(c2ccc(F)c(-c3cc(Cl)cc(Cl)c3)c2)COCC(N)=N1 (centres unmarked) [Example 31, 5-(3′,5′-Dichloro-6-fluoro-biphenyl-3-yl)-5-methyl-5,6-dihydro-2H-[1,4]oxazin-3-ylamine]
0.49 | CC1(c2cccc(-c3cc(Cl)cnc3Cl)c2)COCC(N)=N1 (centres unmarked) [Example 20, 5-[3-(2,5-Dichloro-pyridin-3-yl)-phenyl]-5-methyl-5,6-dihydro-2H-[1,4]oxazin-3-ylamine]
0.39 | CC1(c2cccc(-c3cncc(Cl)c3)c2)COCC(N)=N1 (centres unmarked) [Example 34, 5-[3-(5-Chloro-pyridin-3-yl)-phenyl]-5-methyl-5,6-dihydro-2H-[1,4]oxazin-3-ylamine]
